Assay [1] relates to αv integrins αvβ1, β3, β5. In words: TGFβ activity assay, htert-SMAD reporter cells co-cultured with htert-USP10 cells, αv integrin blocking. It counts as cell-based, human. Conditions: 100 nM, compared to control small molecule CWHM96. As for the experimental part:
TGFβ activity was measured using cell lines constitutively expressing pGreenFire Lenti-Reporter (System Biosciences) a reporter for SMAD activation. This reporter was used to generate TGFβ reporter cell lines with htert fibroblasts (htert-SMAD) and 293t cells (293t-SMAD). To assess TGFβ activity with USP10 overexpression, 50K Htert-SMAD cells were co-cultured with 50K cells constitutively overexpressing USP10 (htert-USP10) or control cells (htert cells expressing empty vector, htert-vector cells). After 24 hours, cells were removed with trypsin, pelleted, re-suspended in luciferase reagent, placed in wells in triplicate, and assayed for luciferase expression. To assess TGFβ activity when USP10 was silenced, USP10 and control siRNA were transiently transfected in 293t-SMAD cells and assayed as above. To assess TGFβ activity when av integrins were blocked, USP10 cells were treated with intergrin αv blocking small molecule or matched control small molecule and assayed as above.
It was previously reported that integrin αvβ5 directly activates TGFβ in myofibroblasts. […] First we confirmed that the htert-HCF line had low (undetectable) endogenous TGFβ activity so that the induction of TGFβ activity by USP10 could be quantified (data not shown). […] The next day, cells were lysed and luciferase substrate (Brightglo) was added prior to quantification of luciferase activity in each sample. […]

The subject of another assay is USP10 expression. In words: USP10 protein expression in HCFs treated with TGFβ or TGFβ inhibitor. It counts as cell-based, human. The source says: Porcine corneas with scleral rims were mounted on an agarose/collagen base without wounding (control corneas) or after wounding through the anterior stroma with a trephine (wounded corneas). A-H immunostaining of paraffin embedded corneal slices comparing control to 2 weeks post-wounding. Compared to control fibrotic markers increased in the anterior stroma after wounding: (A, B) α-SMA 2.9-fold+/−0.8 ***p<0.005, (C) No primary antibody control, (D, E) USP10 2.5-fold+/−0.8 **p<0.01, and F) Pre-incubation with a USP10 blocking peptide reduced immunostaining. Bar=50 um. (G) Western blot of human and porcine primary epithelial cells (Epi) and stromal cells (Fibro).
Since TGFβ plays an important role in all wounding and fibrotic disease, we tested if TGFβ induced the expression of USP10. In the remaining cell culture studies unless otherwise noted, fibroblasts that have been passaged in serum-containing media are detached and plated on type I collagen in supplemented-serum free media (SSFM). In FIG. 4H, primary human corneal fibroblasts (HCFs) were treated with 1 ng/ml TGFβ for 2 days. TGFβ increased USP10 expression by 57% as compared to no treatment.

With `CC(C)(C)c1cc(Br)cc([C@H](CC(=O)O)NC(=O)CNC(=O)c2cc(O)cc(NC3=NCC(O)CN3)c2)c1` (stereo partly drawn) [CWHM12], the “USP10-mediated TGFβ activity, reduction” value in assay [1] was 63%+/−6%.

For `NC(=O)c1ccc(-c2nc(-c3ccc4c(c3)OCO4)c(-c3ccccn3)[nH]2)cc1` [SB431542], in the assay with USP10 expression (blocking TGFβ-induced SMAD2/3 signaling), the “USP10 expression, decrease” value came to 44%.

“TGFβ: fibrotic growth factor, added at 1 ng/ml to HCFs”: the “USP10 expression, increase” value in the assay with USP10 expression (1 ng/ml for 2 days, compared to no treatment) amounted to 57%.

Values taken from patent US9714424B1, “RNAi inhibition of USP10 to treat ocular disorders” (ICAHN SCHOOL OF MEDICINE AT MOUNT SINAI, priority 2014, dated 2017).
